Measured values reported in ChEMBL document CHEMBL1126692, “Structure-activity relationships for mitomycins. Application of the distance and charge analysis method” (J Med Chem, 1993).

Columns and labels:
[1] = Anti cancer activity was determined as lethal dose; assay type: organism-based; details: mouse, in vivo
[2] = species on record: Mus musculus; assay: Anti cancer activity was determined as effective dose; assay type: functional

C=C1C2=C(C(=O)C(C)=C(OC)C2=O)N2C[C@@H]3N[C@@H]3[C@]12OC
LD50 [1]: 13 mg/kg
ED50 [2]: 7.5 mg/kg

C=C1C2=C(C(=O)C(C)=C(N)C2=O)N2C[C@@H]3N[C@@H]3[C@]12OC
LD50 [1]: 75 mg/kg
ED50 [2]: 18 mg/kg

COC1=C(C)C(=O)C2=C(C1=O)[C@@H](COC(N)=O)[C@@]1(OC)[C@H]3N[C@H]3CN21 [MITOMYCIN A]
LD50 [1]: 2.1 mg/kg
ED50 [2]: 1.1 mg/kg

C=C1C2=C(C(=O)C(C)=C(OC)C2=O)N2C[C@H]3[C@H](N3C)[C@]12OC (some centres not stated) [MITOMYCIN G]
LD50 [1]: 22 mg/kg
ED50 [2]: 35 mg/kg

C=C1C2=C(C(=O)C(C)=C(OC)C2=O)N2C[C@H]3[C@H](N3C)[C@]12O (some centres not stated) [MITOMYCIN H]
LD50 [1]: 12 mg/kg
ED50 [2]: 6.8 mg/kg

C=C1C2=C(C(=O)C(C)=C(N)C2=O)N2C[C@H]3[C@H](N3C)[C@]12OC (some centres not stated) [MITOMYCIN K]
LD50 [1]: 130 mg/kg
ED50 [2]: 100 mg/kg

C=C1C2=C(C(=O)C(C)=C(N)C2=O)N2C[C@H]3[C@H](N3C)[C@]12O (some centres not stated) [MITOMYCIN Z]
LD50 [1]: 210 mg/kg
ED50 [2]: 82 mg/kg

CO[C@@]12[C@H](COC(N)=O)C3=C(C(=O)C(C)=C(N)C3=O)N1C[C@@H]1N[C@@H]12 [MITOMYCIN]
ED50 [2]: 4.4 mg/kg

CO[C@@]12[C@H](COC(N)=O)C3=C(C(=O)C(C)=C(N)C3=O)N1C[C@H]1[C@@H]2N1C (some centres not stated) [PORFIROMYCIN]
LD50 [1]: 57 mg/kg
ED50 [2]: 22 mg/kg
